# Measured values reported in US8648068B2, “Heterocycloalkyl-containing thienopyrimidines for pharmaceutical compositions” (Boehringer Ingelheim International GmbH, priority 2010, dated 2014).
# Structures can show the parent of a compound that is named as a salt.
# Test system: Mnk2 (Mnk2a or Mnk2b) or Mnk1
# Assay: not given
# Settings: cell culture cells transfected with Mnk2 (Mnk2a or Mnk2b) or Mnk1; cited from earlier work
row,Structure (SMILES),reduction of phosphorylated eIF4E
1,Nc1ncnc2n[nH]c(Nc3ccc(F)cc3)c12 [CGP57380],strong reduction

# Biological target: T1, human Mnk2a (Homo sapiens, UniProt Q9HBH9)
# T1 construct: made in house; host or cells: E. coli BL21 (vector pGEX-4T1)
# Assay: Mnk2a in vitro kinase assay (indirect fluorescence polarization)
# Assay type: biochemical
# Settings: GST-Mnk2a pre-activated with ERK2, 20 μM ATP, 30 μM substrate peptide; read-out: MNK2 IC50
# Procedure, shortened: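 Indirect competitive fluorescence polarization: kinase-generated phospho-product displaces a fluorophore-labelled phospho-peptide from a phospho-specific antibody. Enzyme is N-terminal GST-Mnk2a from E. coli, activated with pre-activated ERK2 and 50 μM ATP; substrate is an amidated 12-mer peptide around eIF4E Ser209.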
# T1 sequence (Q9HBH9 whole entry): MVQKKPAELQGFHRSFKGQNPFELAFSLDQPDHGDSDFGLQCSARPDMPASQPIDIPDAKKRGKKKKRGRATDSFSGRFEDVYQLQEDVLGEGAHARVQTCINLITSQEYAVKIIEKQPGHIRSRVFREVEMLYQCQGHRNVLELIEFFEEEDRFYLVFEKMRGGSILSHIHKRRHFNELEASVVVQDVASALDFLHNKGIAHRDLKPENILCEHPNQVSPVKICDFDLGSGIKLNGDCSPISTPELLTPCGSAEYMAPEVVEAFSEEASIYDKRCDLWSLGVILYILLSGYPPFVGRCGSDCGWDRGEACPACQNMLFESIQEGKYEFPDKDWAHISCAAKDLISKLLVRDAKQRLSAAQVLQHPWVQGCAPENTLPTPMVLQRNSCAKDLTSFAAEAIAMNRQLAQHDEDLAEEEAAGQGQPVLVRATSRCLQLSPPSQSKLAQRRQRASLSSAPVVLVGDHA
row,Structure (SMILES),IC50
1,"Cc1c(C(=O)NCCCN(C)C)sc2ncnc(Nc3cccnc3O[C@H]3CCOC3)c12 [Example 270, 5-Methyl-4-{2-[(S)-(tetrahydro-furan-3-yl)oxy]-pyridin-3-ylamino}-thieno[2,3-d]pyrimidine-6-carboxylic acid (3-dimethylamino-propyl)-amide]",298 nM
2,"Cc1c(C(=O)NC2CCN(C)CC2)sc2ncnc(Nc3ccc(F)cc3O[C@H]3CCOC3)c12 [Example 271, 4-{4-Fluoro-2-[(S)-(tetrahydro-furan-3-yl)oxy]-phenylamino}-5-methyl-thieno[2,3-d]pyrimidine-6-carboxylic acid (1-methyl-piperidin-4-yl)-amide]",40 nM
3,"Cc1c(C(=O)NC2CCCN(C(=O)OC(C)(C)C)CC2)sc2ncnc(Nc3ccc(F)cc3O[C@H]3CCOC3)c12 (stereo partly drawn) [Example 272, 4-[(4-{4-Fluoro-2-[(S)-(tetrahydro-furan-3-yl)oxy]-phenylamino}-5-methyl-thieno[2,3-d]pyrimidine-6-carbonyl)-amino]-azepane-1-carboxylic acid tert-butyl ester]",40 nM
4,"Cc1c(C(=O)NC2CCCNCC2)sc2ncnc(Nc3ccc(F)cc3O[C@H]3CCOC3)c12 (stereo partly drawn) [Example 273, 4-{4-Fluoro-2-[(S)-(tetrahydro-furan-3-yl)oxy]-phenylamino}-5-methyl-thieno[2,3-d]pyrimidine-6-carboxylic acid azepan-4-ylamide trifluoroacetate]",49 nM
5,Cc1c(C(=O)NCC#CCN(C)C)sc2ncnc(Nc3ccc(F)cc3O[C@@H]3CCOC3)c12 [Example 274],19 nM
6,CSCCCNC(=O)c1sc2ncnc(Nc3cccnc3OC3CCOCC3)c2c1C [Example 279],77 nM
7,Cc1c(C(=O)NCC[S+](C)[O-])sc2ncnc(Nc3cccnc3OC3CCOCC3)c12 (stereo not drawn) [Example 280],40 nM
8,Cc1c(C(=O)NC2CCN(C)CC2)sc2ncnc(Nc3cccnc3OC3CCOCC3)c12 [Example 281],42 nM
